Results reported in patent US20250255968A1, “INTRAVAGINAL DEVICES FOR DRUG DELIVERY” (priority 2011, published 2025).
Structures can show the parent of a compound that is named as a salt.

Legend:
Type in all cases: physicochemical
[1] = In vitro release of EVG, DPV and TFV from hydrophilic polyurethane tubing reservoir rings; details: for TFV steady-state release rate: in presence of DPV or EVG
Description: Elvitegravir (EVG), TFV, and glycerol (63/5/32 wt % TFV/EVG/glycerol-water, where glycerol was premixed as a 33/2 wt % stock solution) was loaded into the lumen of 35 wt % swelling hydrophilic polyurethane single-segment tubing with 5.5 mm cross-sectional diameter and 0.7 mm wall thickness. […] Similarly, dapivirine (DPV) was formulated in various equilibrium swelling hydrophilic polyurethane tubing lumens (all with 5.5 mm cross-sectional diameter and 0.7 mm wall thickness) at 63/5/32 wt % TFV/DPV/glycerol-water (mean±SD, N=5). […] Both DPV and EVG rings described above were tested for in vitro release immediately after ring fabrication. It is known from above examples, as well as previously published work that amphiphilic and lipophilic compounds including DPV often are soluble in polyurethanes up to 20 wt %. Therefore, a ring delivering hydrophobic APIs, such as EVG or DPV, should show little or no lag time in releasing the drug after adequate storage time, since the API should partition into the tubing wall on ring storage. TFV release from HTPU 35 and 60% swelling rings was not noticeably affected by the presence of DPV and EVG (TFV steady-state release rates were approximately 13 and 22 mg/day, respectively).

[2] = In vitro release of IQP-0528 from hydrophobic tubing IVR; details: for 30 days; core 48 wt % drug/52 wt % glycerol in Tecoflex EG85A tubing preloaded with 4.7 wt % drug
Description: An IVR as described in Examples 1, 2, 3, and 9 is manufactured by premixing hydrophobic small molecule API (such as IQP-0528, UC-781, or levonorgestrel) with non-swellable polymer (such as Tecoflex®) and titanium dioxide. The tubing is then extruded as described above using a single screw extruder and tubing crosshead. The tubing may or may not incorporate reinforced/braided tubing or metallic springs to mechanically support the wall. The tubing is then filled with the API and excipient(s) mixture and joined to make a ring as described above. […] The core is composed of 48 wt % drug and 52 wt % glycerol paste filled in a hydrophobic tubing (Tecoflex® EG85A) preloaded with 4.7 wt % drug. In this example, approximately 600 μg of IQP-0528 was released daily for 30 days.

[3] = TDF release from HydroThane IVR after storage at elevated temperature
Method: As a means of diminishing or eliminating API release lag-time, devices may be stored at elevated temperature ranging from 40° C. to 70° C., depending on drug stability, for a predetermined amount of time to accelerate diffusion of the API from the tubing lumen to the tubing wall. After a predetermined time/temperature storage, the API loading in the device wall be equilibrated and the device will show minimal or no lag-time in drug release. This approach works for APIs which show some solubility in the rate-controlling polymer. Also, in certain instances this approach may negate the need for an osmotic agent. […] The IVRs are incubated at elevated temperatures, for example 65° C. for 5 days. […] This minimal amount of TDF in tubing wall reduced the lag time for equilibrium drug release and about 2-3 mg of TDF was delivered on days 1-3.

[4] = In vitro tenofovir release from single-segment reservoir IVR (HPLC); details: 35 wt % swelling Tecophilic HP-60D tubing IVR, TFV/glycerol 70/30 wt % core; pH 4.2 sodium acetate buffer, 37° C., 80 rpm
Method: (§1) In vitro tenofovir (TFV) release and IVR mechanical studies were conducted to evaluate device performance. IVRs were incubated in pH 4.2 sodium acetate buffer and placed in a 37° C., 80 rpm shaker for up to 120 days. Sink conditions were maintained throughout the entire experiment, and release media was changed daily. Quantification of amount of TFV released was determined using high performance liquid chromatography (HPLC) (aqueous mobile phase gradient method on reverse phase C18 column, Agilent 1200 series HPLC). Mechanical properties of the rings over time were measured by compressing rings 25% of their initial outer diameter at a rate of 1 mm/sec using an Instron 3342 mechanical testing system (Norwood, MA) with custom machined aluminum probe. The TFV release rapidly attained steady-state, and release was dependent on polymer equilibrium swelling. The 35 wt % polymer was able to maintain steady-state release through 105 days. Also, the ring mechanical properties changed little with time, even after all drug was released. (See FIG. 2.)

[5] = In vitro TFV release from IVR with drug-impregnated polymeric core; details: HPU 60/TFV (40% w/w) core jacketed with HPU 20/TFV (5% w/w); sodium acetate buffer pH 4.2, 37° C., 77 days, after initial burst
Description: The HPU 20/TFV was used to jacket HPU 60/TFV using a twin-screw extruder and crosshead die. Reservoir rods were cut to approximately 14 cm sections, of which the ends were joined using an O-ring butt-welding clamp and medical grade Tecoflex® 1-MP fast-crystallization polyurethane adhesive, (200-300 cps viscosity, solution of polyurethane based polymer in methyl ethyl ketone and methylene chloride) resulting in a ring with 50-60 mm outer diameter and 5-6 mm outer cross-sectional diameter. […] Several of these IVRs were incubated at 37° C. and in sodium acetate buffer (pH 4.2) for 77 days. Sink conditions were maintained throughout the entire experiment. […] (See FIG. 5.)

[6] = In vitro drug release testing of dual-segment TFV/LNG IVR in aqueous buffer sink; details: hydrophilic tubing reservoir segment of dual-segment IVR
Method: Example 29B. In a further example, a TFV/glycerol/water (65/33/2 wt %) semi-solid paste was loaded into the hydrophilic tubing reservoir segment and LNG was dissolved in the hydrophobic solid core reservoir segment of a dual segment IVR made according to Example 29A (using similar polyurethane tubing). The resulting IVR was subjected to in vitro drug release testing in an aqueous buffer sink for 90 days.

[7] = In vitro TFV release from Tecophilic HP-60D-35 IVR with or without osmotic agent glycerol
Method: as §1

In the case of `Cc1cc(C)c(Nc2ccnc(Nc3ccc(C#N)cc3)n2)c(C)c1` [DPV, dapivirine], the DPV lag time ([1]; various hydrophilic polyurethane rings, tested immediately after fabrication) is reported as “approximately two weeks”.

For `Cc1cc(C)cc(C(=O)c2c(C(C)C)c(=O)[nH]c(=O)n2CC2CC2)c1` [IQP-0528], the IQP-0528 released daily [2] was “approximately 600 μg”.

In the case of `COc1cc2c(cc1Cc1cccc(Cl)c1F)c(=O)c(C(=O)O)cn2[C@H](CO)C(C)C` [EVG, Elvitegravir], the EVG release rate ([1]; for 28 days, unstored rings, 35 wt % swelling hydrophilic polyurethane tubing, 63/5/32 wt % TFV/EVG/glycerol-water) is reported as “over 300 μg/day” and the EVG lag time ([1]; unstored rings, 35 wt % swelling hydrophilic polyurethane tubing) is reported as “several-day lag time”.

In the case of `CC(C)OC(=O)OCOP(=O)(CO[C@H](C)Cn1cnc2c(N)ncnc21)OCOC(=O)OC(C)C` [TDF, tenofovir disoproxil fumarate], the “TDF concentration in tubing wall” value ([3]; HydroThane 25-93A IVR, TDF + sodium chloride (15 wt % of TDF), incubated 65° C. for 5 days) is reported as 5 mg/g polymer and the TDF delivered ([3]; on days 1-3, after 65° C. storage for 5 days) is reported as 2 to 3 mg.

In the case of `C[C@H](Cn1cnc2c(N)ncnc21)OCP(=O)(O)O` [TFV, ({[(2R)-1-(6-amino-9H-purin-9-yl)propan-2-yl]oxy}methyl)phosphonic acid], the “duration of maintained steady-state TFV release” value [4] is reported as 105 days, the TFV release profile [5] is reported as “zero-order fashion” and the “lag period before zero-order TFV release” value [6] is reported as 1 days. The TFV release profile ([6]; TFV/glycerol/water 65/33/2 wt % paste, 90 days) was “Zero-order release”, the “time to steady state TFV release rate” value ([7]; 65/33/2 wt % TFV/glycerol/water paste (glycerol 33 wt %)) was ≤ 3 days and the “time to steady state TFV release rate” value ([7]; 100% TFV powder in the core) was > 28 days. For the same compound, the “TFV steady-state release rate” value ([1]; HTPU 35% swelling rings) was “approximately 13 mg/day” and the “TFV steady-state release rate” value ([1]; HTPU 60% swelling rings) was ~22 mg/day.
